This is an account of results in PubChem BioAssay (NCI).

Holding throughout (assay): growth of human tumour cells (NCI), 48 h
In assay [1] the test system is SW-620 colon.
The test system of assay [2] is MALME-3M melanoma.
In assay [3] the test system is SF-539 CNS.
The test system of assay [4] is NCI-H460 lung.
The test system of assay [5] is NCI-H23 lung.
Assay [6] has as its system RXF 393 renal.
Assay [7] deals with UACC-257 melanoma.
For assay [8], the system named is NCI-H226 lung.
Assay [9] has as its system HOP-92 NSCLC.
Assay [10] concerns LOX IMVI melanoma.

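All cell lines were grown in 96-well plates and treated with compound for 48 hours. Abbreviation: GI50, concentration required for 50% inhibition of growth. The concentration for full growth arrest is given as TGI.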

As for `NC(=O)c1ccccc1NC(=O)c1ccccc1Cl`, the GI50 in assay [1], in assay [2], in assay [3], in assay [4], in assay [5] and in [6] was > 100 µM in each case. Also, the GI50 is > 100 µM in [7], > 100 µM in [8], 60.7 µM in assay [9] and > 100 µM in [10]. For the same compound, the TGI in assay [1], in assay [2], in [3], in [4], in assay [5] and in assay [6] was > 100 µM each time. The TGI in assay [7], in [8], in assay [9] and in [10] was > 100 µM throughout.

For `COc1ccc(-c2cc(-c3cccc(NS(C)(=O)=O)c3)nc(N)c2C#N)cc1`, the GI50 in [1] is 0.048 µM; in [2], 0.0417 µM; in [3], 0.0478 µM; in assay [4], 0.0871 µM; in assay [5] it was 0.256 µM; in assay [6] it was 0.0506 µM. The GI50 in assay [8] was 0.0725 µM; in assay [9], 3.38 µM; in assay [10], 0.0743 µM. Besides, the TGI is > 100 µM in [1]; 21.8 µM in [2]; 0.491 µM in [3]; 10.8 µM in assay [4]; 39.8 µM in [5]; 0.44 µM in assay [6]. The TGI in assay [8] was 28.2 µM; in assay [9], 48.7 µM; in assay [10], > 37.5 µM.

On to `CC1(C)CC([P+](c2ccccc2)(c2ccccc2)c2ccccc2)=NN1`, for which the GI50 in assay [1] was 4.57 µM; in [2], 3.43 µM; in assay [3] it was 6.13 µM; in assay [4] it was 6.09 µM; in assay [5], 4.28 µM; in assay [6] it was 28.2 µM. In addition, the GI50 is 2.82 µM in assay [7], 5.53 µM in [8], 3.75 µM in assay [9] and 3.74 µM in [10]. For the same compound, the TGI was > 100 µM in assay [1]; > 100 µM in assay [2]; 97.3 µM in assay [3]; > 100 µM in assay [4]; > 100 µM in assay [5]; > 100 µM in assay [6]. In addition, the TGI is > 100 µM in [7], 84.5 µM in [8], 71.9 µM in [9] and > 100 µM in assay [10].

Turning to `O=C1c2ccccc2-c2c1c1ccc([N+](=O)[O-])cc1c(=O)n2CCCNCCO`, the GI50 in [1] was 0.0594 µM; in assay [2] it was 0.341 µM; in assay [4], 0.025 µM; in [5] it was 0.115 µM; in assay [6] it was 1.87 µM; in assay [7] it was 3.37 µM. In addition, the GI50 in assay [8] was 1.01 µM; in assay [9] it was 0.0259 µM; in assay [10], 0.0665 µM. In addition, the TGI was found to be 1.77 µM in [1]; 1.62 µM in [2]; 0.343 µM in [4]; 0.713 µM in assay [5]; 3.88 µM in [6]; 9.39 µM in [7]. Further, the figures for the TGI in assay [8], in [9] and in assay [10] were 3.65 µM, 0.0899 µM and 0.348 µM, respectively.

With `CS/C(c1ccccc1)=[N+](\[O-])Cc1ccccc1`, the TGI in [2], in assay [3], in assay [4], in assay [5], in [6] and in [7] was > 100 µM in each case. The values for the TGI in assay [8], in assay [9] and in assay [10] were > 100 µM, > 100 µM and 31.6 µM, respectively.

With `O=S(=O)(NC1=NCCN1C(=S)SN1CCn2c1nsc2=S)c1ccccc1Cl`, the GI50 in assay [1] was 10.4 µM; in assay [2] it was 12.5 µM; in assay [3] it was 12.9 µM; in assay [6], 4.38 µM; in [7], 31.6 µM; in assay [8], 35.7 µM. In addition, the GI50 was 11 µM in assay [9] and 16.5 µM in assay [10]. The TGI in [1] is 77.9 µM; in assay [2], 67.5 µM; in assay [3] it was 31.5 µM; in assay [6], 46.5 µM; in [7], > 100 µM; in assay [8], > 100 µM. The TGI worked out at 89.7 µM in [9] and 62.9 µM in assay [10].

As for `CCOC(=O)C(C(=O)OCC)C(=O)c1ccccc1C(=O)c1ccccc1`, the TGI was 50.5 µM in assay [1]; > 100 µM in assay [2]; > 100 µM in [3]; > 100 µM in assay [4]; > 100 µM in assay [5]; > 100 µM in [6]. Also, the TGI in assay [7], in assay [8], in assay [9] and in assay [10] was > 100 µM throughout.

For the compound `CC(=O)/C=C1\CC(=O)Nc2ccccc2N1`, the TGI in assay [1], in [2], in [3], in [4], in [5] and in assay [6] was > 100 µM throughout. Besides, the TGI in assay [7], in assay [8], in assay [9] and in assay [10] was > 100 µM each time.

Turning to `CNC1=C(C(=O)OC)SC(c2ccccc2)(c2ccccc2)SC1`, the GI50 in assay [1] was 15 µM; in assay [3], 26.3 µM; in assay [4] it was 16.9 µM; in assay [5], 17.5 µM; in [6], 22 µM; in [7], 9.2 µM. For the same compound, the GI50 in [8] is > 100 µM; in [9], 20.7 µM; in assay [10], 21.2 µM. For the same compound, the TGI in assay [1], in assay [3], in [4], in assay [5], in [6] and in assay [7] was > 100 µM throughout. Moreover, the TGI in [8], in assay [9] and in assay [10] was > 100 µM each time.

`O=C(Nc1nc2ccc([N+](=O)[O-])cc2s1)C(=O)C(C(=O)c1ccncc1)C1OC(=O)c2ccccc21` (configuration not stated): the TGI in assay [1], in assay [2], in assay [5], in assay [6], in [7] and in [8] was > 100 µM in each case. Further, in [9], the TGI is > 100 µM.

With `COc1ccc(-c2ccc(-c3ccc(C(=N)N)cn3)o2)cc1Cl`, the GI50 in assay [1] was 1.78 µM; in assay [2] it was 1.81 µM; in assay [3], 1.68 µM; in assay [4], 1.89 µM; in assay [5], 1.92 µM; in assay [6], 1.61 µM. In addition, the GI50 in [7] is 2.35 µM; in [8], 2.89 µM; in assay [9] it was 1.12 µM. Moreover, the TGI in assay [1] is 3.57 µM; in assay [2], 3.48 µM; in assay [3], 3.14 µM; in assay [4], 3.63 µM; in [5], 4.04 µM; in assay [6], 3.07 µM. For the same compound, the TGI in assay [7] was determined as 4.85 µM; in assay [8], 13.3 µM; in assay [9] it was 2.44 µM.

For the compound `Cc1cc(C)c(S(=O)(=O)N(CCc2cccc(Br)c2)Cc2ccc(-c3cccc(S(C)(=O)=O)c3)cc2)c(C)c1`, the GI50 in assay [1], in [2], in assay [3], in assay [4], in assay [5] and in assay [6] was > 100 µM each time. In addition, the GI50 in [8], in assay [9] and in assay [10] was > 100 µM each time. Besides, the TGI in assay [1], in assay [2], in assay [3], in assay [4], in assay [5] and in assay [6] was > 100 µM each time. Further, the TGI in assay [8], in assay [9] and in assay [10] was > 100 µM each time.

Turning to `Cc1cc(N(CCCNc2ccnc3cc(Cl)ccc23)Cc2ccc3c(c2)OCO3)nc(N2CCCCC2)n1`, the GI50 in [2] was 1.97 µM; in [3], 1.82 µM; in assay [5], 2.67 µM; in assay [6] it was 1.52 µM; in [7] it was 2.2 µM; in assay [8] it was 4.03 µM. In addition, the values for the GI50 in assay [9] and in assay [10] were 1.12 µM and 1.69 µM, respectively. Further, the TGI in assay [2] came out at 3.75 µM; in [3], 3.36 µM; in assay [5], 13.3 µM; in assay [6] it was 3.12 µM; in assay [7], 4.22 µM; in assay [8], 20.5 µM. Besides, the figures for the TGI in assay [9] and in assay [10] were 3.49 µM and 3.29 µM, respectively.

`CCc1ccc2nccc(NCCCN(C)C)c2c1[N+](=O)[O-]`: the TGI is > 100 µM in assay [1]; > 100 µM in [2]; > 100 µM in [4]; > 100 µM in assay [5]; > 100 µM in assay [6]; 81.3 µM in [7]. The TGI in assay [8], in [9] and in [10] was > 100 µM throughout.
